Measurements from publication PMC8434109, “Synthesis and Biological Activity of a Cytostatic Inhibitor of MLLr Leukemia Targeting the DOT1L Protein” (Molecules, 2021).

How the values were obtained:
DNMT3A = DNMT3A (Homo sapiens, UniProt Q9Y6K1); assay: hDNMT3Acat activity assay; type: biochemical; details: substrate DNA, read-out: Enzyme % Activity (relative to DMSO controls)
Method: (§1) Table S1: Selectivity of the compound on a HMT panel (by Reaction Biology, USA) and on hDNMT3Acat (as described in Ceccaldi
(§2) Enzyme % Activity (relative to DMSO
(§3) Testing Concentration 10µM
(§4) Methyltransferase: Substrate: Activity enzyme in %

H3K79me2 in MV4-11 cells = assay: Western blot of H3K79me2 normalized to total H3; type: cell-based, human; details: MV4-11, 4 days, increasing concentrations
Method: (§5) Next, we evaluated the effect on the demethylation of H3K79 in MLL-AF9 MOLM13 cells (Figure 7B).
(§6) The non-adherent cell lines MV4-11, MOLM-13, and KOPN8 exponentially growing cells were plated in 12-well plates (1 plate for each experiment) at a rate of 500,000 cells per well at a final volume of 2 mL. The cells were incubated in the presence of increasing inhibitor concentrations (0.1, 0.32, 1, 3.2, 10 µM). The cells (1 to 2 million) were harvested at the time chosen according to the line in order to extract the histones and the RNAs.
(§7) For the isolation of histones from cells, 1 to 2 million cells were collected, after exposure to the chosen treatment, by centrifugation at 200× g and lysed by 5 min of incubation on ice in 250 μL of the nuclear extraction buffer (10 mM Tris-HCl, 10 mM MgCl2, 25 mM KCl, 1% Triton X-100, 8.6% sucrose, Roche Protease inhibitor tablet 1836145). The nuclei were collected by centrifugation at 600× g for 5 min at 4 °C. The supernatant was removed and the histones were extracted for 1 h with 0.4 N cold sulfuric acid. The extracts were clarified by centrifugation at 10,000× g for 10 min at 4 °C and transferred to a microcentrifuge tube containing a 10× volume of ice-cold acetone. The histones were precipitated at ‒20 °C overnight and recovered by centrifugation at 1500× g for 10 min in the form of a pellet and then resuspended in 80 μL of water. Histones were quantified by absorbance measured by a nanodrop at 276 nm.
(§8) After extraction, the histones (500ng) were separated on 4–20% Tris-Glycine gels (Invitrogen) and transferred onto a nitrocellulose membrane ([…]) using the iBlot® Gel Transfer Stacks Nitrocellulose kit Mini (Invitrogen). After blocking nonspecific sites for 1 h at room temperature in a solution of 1X TBS at 5% milk, the membrane was incubated with rabbit anti-H3K79me2 (ab3594, 1/1000) or anti-H3 (ab1791)1/1000) overnight at 4 °C or 1 h at RT. The membrane was then washed three times for 5 min in a 1X TBS solution containing 0.05% Tween20 and was then incubated with an HRP anti-rabbit secondary antibody (NA934V, 1/10,000) for 1 h at RT. […]

H3K79me2 in MOLM13 cells = assay: Western blot of H3K79me2 normalized to total H3; type: cell-based, human; details: MOLM13, 6 days
Method: as §5, §6, §7, §8

MV4-11 cells [1] = assay: Flow cytometry cell cycle analysis (propidium iodide); type: cell-based, human; details: for percentage of cells in the G0/G1 phase / percentage of cells in the S phase: MV4-11, 3.2 µM
Method: (§9) A decrease in the S phase of the cell cycle was also observed from 24% (day 8) to 20% (day 10), 13% (day 12).
(§10) In a 12-well plate, 2 mL exponentially growing MV4-11 cells were plated with a density of 2 × 10^5 cells/mL. […] Culture media and drugs were replaced every 2–3 days and cells were split back to a density of 2 × 10^5 cells/mL at the same time. Cells were harvested on days 8, 10, 12 and split to allow the analysis of cell cycle and Annexin V staining simultaneously. The apoptosis ratio was detected by an Annexin V-APC/7-AAD double staining assay (SONY 3804610) and cells were prepared according to the manufacturer’s recommendations. Cells for the cell cycle analysis were collected by centrifugation at 500× g for 5 min at 4 °C. The pellets were washed once with cold PBS and then fixed with 70% ethanol on ice for 30 min. Afterwards, the cells were washed once with cold PBS and stained with propidium iodide (Invitrogen P3566) for 30 min at 37 °C. Samples were measured using an Attune NxT acoustic focusing cytometer (Life Technologies), data were analyzed by FlowJo.

KOPN8 cells (MLL-ENL) = assay: Cell proliferation, trypan blue counting; type: cell-based; details: Homo sapiens, KOPN-8, 360 h, 15-day treatment, read-out: EC50 of the proliferation inhibition
Method: (§11) For assessment of cell proliferation and viability in human cell lines, exponentially growing cells were placed, in triplicate, in 96-well plates at a density of 35,000 cells/well at a final volume of 100 µL. […] The viable cell number was determined every 3–4 days for up to 15 days to 21 days using trypan blue counting using Cellometer Disposable Counting Chambers for the Cellometer Mini Automated Cell Counter.

NOMO-1 cells (MLL-AF9) = assay: Cell proliferation, trypan blue counting; type: cell-based; details: Homo sapiens, 360 h; NOMO-1 (AF9), 15-day treatment; read-out: EC50 of the proliferation inhibition
Method: as §11

MV4-11 cells (MLL-AF4) = assay: Cell proliferation and viability, trypan blue counting; type: cell-based, human; details: Homo sapiens, 360 h; MV4-11 (AF4), 15-day treatment; read-out: EC50 of the proliferation inhibition
MV4-11 cells [2] = assay: Flow cytometry apoptosis analysis (Annexin V-APC/7-AAD); type: cell-based, human
Method: as §9, §10

PRMT6 = target: T1, PRMT6 (Homo sapiens, UniProt Q96LA8); assay: HMT selectivity panel (Reaction Biology); type: biochemical; details: substrate GST-GAR, read-out: Enzyme % Activity (relative to DMSO controls)
T1 construct: purchased Reaction Biology
Method: as §1, §2, §3, §4

EZH2 Complex = target: T2, EZH2 Complex (Homo sapiens, UniProt Q15910); assay: HMT selectivity panel (Reaction Biology); type: biochemical; details: substrate Core Histone, read-out: Enzyme % Activity (relative to DMSO controls)
T2 construct: purchased Reaction Biology
Method: as §1, §2, §3, §4

Microsomal stability = type: in vitro ADME

T2 sequence (Q15910 2-746 limits assumed): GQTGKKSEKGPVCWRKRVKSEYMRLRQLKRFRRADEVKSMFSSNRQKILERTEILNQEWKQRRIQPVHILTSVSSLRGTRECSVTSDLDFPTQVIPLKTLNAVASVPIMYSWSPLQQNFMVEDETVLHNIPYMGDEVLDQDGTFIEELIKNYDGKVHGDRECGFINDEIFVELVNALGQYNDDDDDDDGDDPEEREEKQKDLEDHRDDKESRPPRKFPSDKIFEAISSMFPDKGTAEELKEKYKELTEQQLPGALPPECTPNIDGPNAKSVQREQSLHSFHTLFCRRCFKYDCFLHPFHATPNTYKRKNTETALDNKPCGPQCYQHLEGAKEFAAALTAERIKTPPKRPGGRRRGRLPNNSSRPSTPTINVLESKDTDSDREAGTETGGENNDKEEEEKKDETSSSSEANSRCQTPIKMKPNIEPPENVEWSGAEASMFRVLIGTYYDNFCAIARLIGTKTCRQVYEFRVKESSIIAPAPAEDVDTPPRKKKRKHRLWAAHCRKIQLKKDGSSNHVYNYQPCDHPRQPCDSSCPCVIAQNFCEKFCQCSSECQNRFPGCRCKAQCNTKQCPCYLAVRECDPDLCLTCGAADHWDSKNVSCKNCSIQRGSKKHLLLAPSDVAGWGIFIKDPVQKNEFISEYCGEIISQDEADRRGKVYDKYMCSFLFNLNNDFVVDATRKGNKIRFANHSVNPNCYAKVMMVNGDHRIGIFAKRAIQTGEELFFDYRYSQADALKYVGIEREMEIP
T2 sequence (O75530 2-441 partner limits assumed): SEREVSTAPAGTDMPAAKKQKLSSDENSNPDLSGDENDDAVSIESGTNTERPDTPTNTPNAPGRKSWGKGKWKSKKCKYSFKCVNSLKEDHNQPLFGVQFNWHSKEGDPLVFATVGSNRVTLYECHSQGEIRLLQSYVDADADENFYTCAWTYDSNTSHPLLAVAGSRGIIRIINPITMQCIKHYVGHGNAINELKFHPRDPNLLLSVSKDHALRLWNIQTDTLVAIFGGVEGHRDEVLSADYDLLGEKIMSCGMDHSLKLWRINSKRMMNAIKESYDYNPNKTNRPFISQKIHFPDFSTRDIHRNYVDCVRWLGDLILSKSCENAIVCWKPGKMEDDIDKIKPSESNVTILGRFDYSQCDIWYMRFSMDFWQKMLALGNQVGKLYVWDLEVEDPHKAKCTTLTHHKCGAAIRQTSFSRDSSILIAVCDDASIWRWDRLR
T2 sequence (Q15022 2-739 partner limits assumed): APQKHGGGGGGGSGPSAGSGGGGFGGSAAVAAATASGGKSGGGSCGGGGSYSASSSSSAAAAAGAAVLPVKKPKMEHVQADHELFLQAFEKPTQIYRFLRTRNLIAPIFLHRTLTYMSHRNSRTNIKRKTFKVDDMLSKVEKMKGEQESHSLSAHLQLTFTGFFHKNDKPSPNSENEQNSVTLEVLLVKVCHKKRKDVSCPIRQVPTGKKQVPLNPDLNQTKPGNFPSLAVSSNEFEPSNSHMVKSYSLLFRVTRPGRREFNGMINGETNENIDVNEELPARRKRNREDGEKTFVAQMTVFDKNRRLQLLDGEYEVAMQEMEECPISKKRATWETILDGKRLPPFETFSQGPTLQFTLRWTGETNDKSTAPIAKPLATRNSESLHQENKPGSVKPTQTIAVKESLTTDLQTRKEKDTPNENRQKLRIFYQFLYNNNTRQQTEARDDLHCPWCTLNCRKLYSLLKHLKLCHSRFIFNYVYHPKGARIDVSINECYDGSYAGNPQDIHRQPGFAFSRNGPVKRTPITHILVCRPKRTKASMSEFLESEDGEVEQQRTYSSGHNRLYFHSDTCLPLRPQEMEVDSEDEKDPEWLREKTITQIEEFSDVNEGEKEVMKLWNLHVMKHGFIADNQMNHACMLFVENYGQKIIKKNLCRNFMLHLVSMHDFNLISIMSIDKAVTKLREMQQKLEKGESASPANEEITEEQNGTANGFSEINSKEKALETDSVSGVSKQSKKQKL
T2 sequence (Q09028 2-425 partner limits assumed): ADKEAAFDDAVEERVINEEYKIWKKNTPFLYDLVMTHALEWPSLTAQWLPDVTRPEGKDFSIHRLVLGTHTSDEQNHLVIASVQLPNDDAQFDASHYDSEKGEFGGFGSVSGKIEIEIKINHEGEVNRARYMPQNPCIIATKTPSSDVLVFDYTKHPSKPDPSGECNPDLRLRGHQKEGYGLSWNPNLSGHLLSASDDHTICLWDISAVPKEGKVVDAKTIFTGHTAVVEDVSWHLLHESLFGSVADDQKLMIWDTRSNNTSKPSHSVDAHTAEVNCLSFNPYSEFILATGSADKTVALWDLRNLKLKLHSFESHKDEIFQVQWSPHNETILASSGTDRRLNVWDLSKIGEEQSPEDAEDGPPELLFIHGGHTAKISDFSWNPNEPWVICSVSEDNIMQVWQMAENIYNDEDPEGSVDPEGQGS
T2 sequence (Q6ZN18 whole entry partner): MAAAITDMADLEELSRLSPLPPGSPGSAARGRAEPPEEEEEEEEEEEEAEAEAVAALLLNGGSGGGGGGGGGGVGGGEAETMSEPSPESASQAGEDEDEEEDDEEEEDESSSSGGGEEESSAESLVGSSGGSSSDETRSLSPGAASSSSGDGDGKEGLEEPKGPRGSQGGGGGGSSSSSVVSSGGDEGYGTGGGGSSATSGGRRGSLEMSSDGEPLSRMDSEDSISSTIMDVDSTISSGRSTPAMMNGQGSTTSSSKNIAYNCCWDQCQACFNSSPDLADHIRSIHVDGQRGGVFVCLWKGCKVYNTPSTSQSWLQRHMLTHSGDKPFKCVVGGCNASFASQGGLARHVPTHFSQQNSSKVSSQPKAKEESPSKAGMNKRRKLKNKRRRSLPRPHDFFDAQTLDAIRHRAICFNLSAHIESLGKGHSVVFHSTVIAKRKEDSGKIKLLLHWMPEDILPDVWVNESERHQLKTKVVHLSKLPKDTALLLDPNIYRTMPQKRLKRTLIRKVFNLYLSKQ
DNMT3A, sequence (Q9Y6K1 634-912 limits assumed): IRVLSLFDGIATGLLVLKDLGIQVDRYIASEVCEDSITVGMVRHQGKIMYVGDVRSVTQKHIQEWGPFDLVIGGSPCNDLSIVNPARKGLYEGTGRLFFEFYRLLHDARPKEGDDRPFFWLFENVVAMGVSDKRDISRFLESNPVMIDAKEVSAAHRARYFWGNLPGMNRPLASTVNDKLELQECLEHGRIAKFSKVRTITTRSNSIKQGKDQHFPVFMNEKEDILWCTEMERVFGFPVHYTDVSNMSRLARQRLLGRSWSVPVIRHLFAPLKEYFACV
T1 sequence (Q96LA8 whole entry): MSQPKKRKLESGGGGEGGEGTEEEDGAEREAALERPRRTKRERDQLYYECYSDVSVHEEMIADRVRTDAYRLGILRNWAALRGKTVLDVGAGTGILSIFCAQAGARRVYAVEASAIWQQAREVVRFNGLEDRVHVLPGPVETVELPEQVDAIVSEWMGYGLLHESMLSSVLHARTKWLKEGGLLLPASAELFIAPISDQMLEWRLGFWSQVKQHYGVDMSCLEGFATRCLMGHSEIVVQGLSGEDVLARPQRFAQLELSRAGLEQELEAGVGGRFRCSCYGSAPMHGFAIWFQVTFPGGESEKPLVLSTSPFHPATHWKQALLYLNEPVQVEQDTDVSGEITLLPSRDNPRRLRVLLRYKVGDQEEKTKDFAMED

- remaining activity at 10 µM (DNMT3A): 96 ± 2%
- EC50 (MV4-11 cells (MLL-AF4)): 93 ± 4 nM
- remaining activity at 10 µM (PRMT6): 95 ± 1%
- remaining activity at 10 µM (EZH2 Complex): 86 ± 1%
- half-life increase (Microsomal stability; mouse liver microsomes, versus EPZ-4777 and EPZ-5676): 2 fold
- microsomal CLint (Microsomal stability; mouse liver microsomes, read-out: intrinsic clearance): 121 µL/min/mg
- half-life (Microsomal stability; mouse, liver microsomes): 11.5 min
Structure (SMILES): CC(C)[C@H](CCCNC(=O)Nc1ccc(C(C)(C)C)cc1)N[C@H]1C[C@@H](n2cnc3c(N)ncnc32)[C@H](O)[C@@H]1O [Dia2, 1-((S)-4-(((1S,2R,3S,4R)-4-(6-amino-9H-purin-9-yl)-2,3-dihydroxycyclopentyl)amino)-5-methylhexyl)-3-(4-(tert-butyl)phenyl)urea]
- H3K79me2 methylation compared to DMSO treated cells (H3K79me2 in MV4-11 cells): efficient decrease in methylation
- inhibition of the H3K79me2 mark (H3K79me2 in MOLM13 cells): as efficient as EPZ-5676
- effect on the cell cycle (MV4-11 cells [1]; MV4-11, 1 µM): does not affect the cell cycle
- percentage of cells in the G0/G1 phase (MV4-11 cells [1]; day 8): 53%
- percentage of cells in the S phase (MV4-11 cells [1]; day 8): 24%
- percentage of cells in the G0/G1 phase (MV4-11 cells [1]; day 10): 41%
- percentage of cells in the S phase (MV4-11 cells [1]; day 10): 20%
- percentage of cells in the G0/G1 phase (MV4-11 cells [1]; day 12): 24%
- percentage of cells in the S phase (MV4-11 cells [1]; day 12): 13%
- EC50 (KOPN8 cells (MLL-ENL)): 63 ± 2 nM
- EC50 (NOMO-1 cells (MLL-AF9)): 660 ± 20 nM
- effect on apoptosis (MV4-11 cells [2]; MV4-11): very little apoptosis
- apoptotic (Annexin V positive) cells (MV4-11 cells [2]; MV4-11, 1 µM, day 8): 23%
- apoptotic (Annexin V positive) cells (MV4-11 cells [2]; MV4-11, 1 µM, day 10): 20%
- apoptotic (Annexin V positive) cells (MV4-11 cells [2]; MV4-11, 3.2 µM, day 8): 35%
- apoptotic (Annexin V positive) cells (MV4-11 cells [2]; MV4-11, 3.2 µM, day 10): 38%
